These results are taken from ChEMBL document CHEMBL1201862, “PubChem BioAssay data set” (2004).

Among the test systems are HOP-18; LXFL 529; DMS-273; XF498; M19-MEL; DMS-114; KM-20L2; RXF 631; DLD-1.
What all share (experiment): DTP human tumour cell line panel, 48 h

Molecules are shown by their SMILES.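 In this assay, cells in 96-well plates receive the compound at five concentrations for 48 hours. Endpoints are linearly interpolated between the surrounding concentrations. Here, GI50 denotes the concentration required for 50% inhibition of growth.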 Calls of active or inactive are those of the source. No stated cut-off is given here; in the data, active = GI50 up to about 1.1 µM and inactive = higher.

Consider `COc1ccc2c(c1)CC1c3c(cc4c(c3-2)OCO4)CCN1C` (configuration not stated), for which the GI50 is 21.4 µM (inactive) in the assay with HOP-18; 36.5 µM (inactive) with LXFL 529; 25.7 µM (inactive) in the assay with DMS-273; 27.7 µM (inactive) in the assay on XF498; 21.4 µM (inactive) with M19-MEL; 24.3 µM (inactive) in the assay with DMS-114. The figures for the GI50 with KM-20L2, in the assay with RXF 631 and in the assay with DLD-1 were 30.8 µM (inactive), 24.5 µM (inactive) and 41.9 µM (inactive), respectively.

On to `COC(=O)C1C=NNC1C(=O)OC` (configuration not stated), for which the GI50 in the assay with HOP-18, in the assay on LXFL 529, in the assay with DMS-273, in the assay on XF498, in the assay on M19-MEL and in the assay on DMS-114 was > 100 µM (inactive) throughout. The GI50 in the assay with KM-20L2 and with RXF 631 was > 100 µM (inactive) each time.

Take `O=C(O)CSc1nnc(-c2ccccc2)[nH]1`: the GI50 in the assay on HOP-18, in the assay on LXFL 529, in the assay on DMS-273, with XF498, with M19-MEL and with KM-20L2 was > 100 µM (inactive) in each case. Further, the GI50 in the assay with DLD-1 was > 100 µM (inactive).

As for `CCOc1ccc(/N=N/c2ccc3oc(=O)c(C(=O)Nc4ccc(OC)cc4)cc3c2)cc1`, the GI50 in the assay on LXFL 529 was 6.82 µM (inactive); with DMS-273, 25.8 µM (inactive); in the assay on M19-MEL it was 26.4 µM (inactive); with KM-20L2, 32.2 µM (inactive); with DLD-1 it was 8.32 µM (inactive).

Turning to `O=C(/C=C/c1ccccc1O)c1cccnc1`, the GI50 with HOP-18, with LXFL 529, with DMS-273, in the assay on XF498, in the assay with M19-MEL and in the assay with KM-20L2 was > 100 µM (inactive) throughout. Further, the GI50 in the assay on RXF 631 and in the assay with DLD-1 was > 100 µM (inactive) in each case.

With `Nc1ccc(C(=O)NN2C(=O)C(Cl)C2c2ccccc2O)cc1` (configuration not stated), the GI50 was 54.2 µM (inactive) in the assay with LXFL 529; 55.2 µM (inactive) with DMS-273; 37.3 µM (inactive) with XF498; 49.1 µM (inactive) in the assay with M19-MEL; 21.1 µM (inactive) in the assay with DMS-114; 70 µM (inactive) with KM-20L2. Further, the GI50 with DLD-1 was 54.3 µM (inactive).

`CC(=O)Nc1ccc(C(=O)NN2C(=O)C(Cl)C2c2ccc(Cl)cc2)cc1` (configuration not stated): the GI50 was 64.4 µM (inactive) in the assay with HOP-18, 50.6 µM (inactive) with LXFL 529, > 100 µM (inactive) in the assay with M19-MEL and > 100 µM (inactive) in the assay with DLD-1.

Take `CC(C)(C)OC(=O)Cc1ccc2c(ccn2Cc2ccccc2)c1`: the GI50 in the assay on HOP-18 is > 100 µM (inactive); with LXFL 529, 46.7 µM (inactive); in the assay on DMS-273 it was 48 µM (inactive); in the assay with M19-MEL, 62.4 µM (inactive); in the assay on DMS-114 it was 18.7 µM (inactive); with KM-20L2, 26.3 µM (inactive). The GI50 in the assay with RXF 631 is 25.9 µM (inactive); in the assay with DLD-1 it was 57.3 µM (inactive).

`CN(C(=O)C1CC1)C1C2CN3CCC(O2)C13` (configuration not stated): the GI50 with HOP-18, in the assay with LXFL 529, with DMS-273, in the assay with M19-MEL, in the assay with DMS-114 and in the assay with KM-20L2 was > 100 µM (inactive) throughout. In addition, the GI50 in the assay on DLD-1 was > 100 µM (inactive).

As for `Cc1cc(NS(=O)(=O)c2ccc(NC(=O)c3ccc(Cl)c4c(Nc5ccc(S(=O)(=O)Nc6cc(C)on6)cc5)c5ccccc5nc34)cc2)no1`, the GI50 with HOP-18 was 15.8 µM (inactive); with LXFL 529, 21.6 µM (inactive); in the assay on DMS-273, 22.5 µM (inactive); in the assay on XF498 it was 31.8 µM (inactive); in the assay on M19-MEL, 22.9 µM (inactive); in the assay with DMS-114 it was 18.5 µM (inactive). In addition, the GI50 in the assay on KM-20L2 was 21.5 µM (inactive); with DLD-1 it was > 10 µM (inactive).

As for `CC(C)=CCCc1c(C)ccc2c1C(=O)C(=O)C(C(C)C)=C2`, the GI50 with HOP-18 was 4.02 µM (inactive); in the assay with LXFL 529, 3.62 µM (inactive); in the assay on DMS-273 it was 3.97 µM (inactive); in the assay on XF498, 3.77 µM (inactive); in the assay with M19-MEL, 3.87 µM (inactive); in the assay with DMS-114 it was 4.2 µM (inactive). For the same compound, the GI50 is > 22 µM (inactive) in the assay with KM-20L2 and 3.48 µM (inactive) in the assay with DLD-1.

In the case of `COC(=O)/C(C#N)=C1\NN=NN1CCCN1CCOCC1`, the GI50 with HOP-18, in the assay with LXFL 529, in the assay with DMS-273, in the assay on M19-MEL, with DMS-114 and in the assay on DLD-1 was > 100 µM (inactive) throughout.

In the case of `COc1ccc(C=O)cc1O[Si](C)(C)C(C)(C)C`, the GI50 with HOP-18 was 33.7 µM (inactive); in the assay with LXFL 529, > 100 µM (inactive); in the assay on DMS-273, > 100 µM (inactive); in the assay on M19-MEL, > 100 µM (inactive); in the assay on DMS-114, > 100 µM (inactive); with KM-20L2, > 100 µM (inactive). The GI50 in the assay with DLD-1 was > 100 µM (inactive).

For the compound `O=C(O)CCC1CCc2cccc(OCC(=O)O)c2C1=O` (configuration not stated), the GI50 in the assay on HOP-18, in the assay with LXFL 529, with DMS-273, in the assay with XF498, in the assay on M19-MEL and with DMS-114 was > 100 µM (inactive) throughout. Besides, the GI50 in the assay on KM-20L2 and with DLD-1 was > 100 µM (inactive) each time.

As to `C=C(C)C1CC[C@]2(C(=O)O)CCC3(C)[C@H](CCC4[C@@]5(C)CC[C@H](OC6OC(CO)C(O)C6OC6OC(C)C(O)C(O)C6O)[C@@](C)(CO)C5CC[C@]43C)C12` (some centres not stated), the GI50 in the assay on LXFL 529, in the assay on DMS-273, in the assay with XF498, in the assay on M19-MEL, with DMS-114 and with KM-20L2 was > 100 µM (inactive) in each case. Besides, the results for the GI50 in the assay with RXF 631 and in the assay with DLD-1 were > 100 µM (inactive) and 33.9 µM (inactive), respectively.

In the case of `C1CC2=C(C1)C1=S(S2)SC2=C1CCC2`, the GI50 in the assay with HOP-18, in the assay on LXFL 529, with DMS-273, in the assay on M19-MEL, in the assay with DMS-114 and with KM-20L2 was > 100 µM (inactive) throughout. The GI50 in the assay on RXF 631 and with DLD-1 was > 100 µM (inactive) in each case.

Turning to `Oc1nc(S)nc2c1CCCN2`, the GI50 with HOP-18, in the assay with LXFL 529, in the assay on M19-MEL, with DMS-114, with RXF 631 and in the assay on DLD-1 was > 100 µM (inactive) throughout.

On to `Cn1c2c(c3ccccc31)CCN(CCCCN1CCN(c3cccc(Cl)c3)CC1)C2=O`, for which the GI50 is 29 µM (inactive) in the assay with HOP-18; 11.1 µM (inactive) with LXFL 529; 9.06 µM (inactive) in the assay with DMS-273; 14.4 µM (inactive) in the assay on XF498; 11.5 µM (inactive) in the assay with M19-MEL; 1.67 µM (inactive) with DMS-114. Besides, the GI50 in the assay with KM-20L2 is 4.17 µM (inactive); in the assay with DLD-1 it was 10.6 µM (inactive).

In the case of `COc1ccc(C(C)c2cc3c(cc2OC)OCO3)cc1` (configuration not stated), the 50% growth inhibitory concentration (GI50) was 0.371 µM (active) in the assay with HOP-18; 0.125 µM (active) in the assay with LXFL 529; 0.106 µM (active) with DMS-273; 0.395 µM (active) in the assay with M19-MEL; 0.339 µM (active) with DMS-114; 0.225 µM (active) in the assay with KM-20L2. Besides, the concentration for 50% growth inhibition (GI50) with DLD-1 is 0.225 µM (active).

In the case of `CCCCC1CC(c2cccc([N+](=O)[O-])c2)=NO1` (configuration not stated), the GI50 in the assay with HOP-18 was 80.4 µM (inactive); in the assay with LXFL 529, 56.5 µM (inactive); with DMS-273, > 100 µM (inactive); in the assay on M19-MEL, 74.6 µM (inactive); in the assay with DMS-114, 40.6 µM (inactive); with KM-20L2, > 100 µM (inactive). For the same compound, the GI50 was 80.7 µM (inactive) in the assay on RXF 631 and > 100 µM (inactive) with DLD-1.

With `CC(=O)OC1CC(n2cc(F)c(=O)[nH]c2=O)OC1CO` (configuration not stated), the GI50 with HOP-18 is 6.61 µM (inactive); in the assay on LXFL 529, 0.575 µM (active); in the assay with DMS-273, 0.331 µM (active); in the assay with XF498 it was 13.7 µM (inactive); in the assay with M19-MEL, > 100 µM (inactive); in the assay on DMS-114, 1.36 µM (inactive). The figures for the GI50 in the assay with KM-20L2 and with DLD-1 were 0.962 µM (active) and 28.8 µM (inactive), respectively.

`O=C1O[C@H](C(Cl)(Cl)Cl)N2CCCC12` (some centres not stated): the GI50 in the assay on HOP-18 was 18.5 µM (inactive); in the assay on LXFL 529 it was > 100 µM (inactive); in the assay on DMS-273 it was > 100 µM (inactive); in the assay with XF498 it was > 100 µM (inactive); with M19-MEL, > 100 µM (inactive); with DMS-114, > 100 µM (inactive). For the same compound, in the assay on KM-20L2, the GI50 is > 100 µM (inactive).

Consider `COc1nc(NC2OCC(OC(C)=O)C(OC(C)=O)C2OC(C)=O)c(/N=C\C=N\c2c(NC3OCC(OC(C)=O)C(OC(C)=O)C3OC(C)=O)nc(OC)n(C)c2=O)c(=O)n1C` (configuration not stated), for which the GI50 with HOP-18 was > 100 µM (inactive); with LXFL 529, > 100 µM (inactive); in the assay on DMS-273, > 100 µM (inactive); in the assay with XF498, 17.9 µM (inactive); with M19-MEL, > 100 µM (inactive); with KM-20L2 it was > 100 µM (inactive). The GI50 with DLD-1 was > 100 µM (inactive).

On to `CC(C)=C1CCC(CN(C)C)C1=O` (configuration not stated), for which the GI50 in the assay with HOP-18 is 22.1 µM (inactive); in the assay with LXFL 529 it was 12.8 µM (inactive); in the assay on M19-MEL, 47.2 µM (inactive); with DMS-114, 16.5 µM (inactive); in the assay with KM-20L2 it was 13.7 µM (inactive); with RXF 631, 13.6 µM (inactive). In the assay on DLD-1, the GI50 is 6.85 µM (inactive).

`CN(/N=C/c1ccnc2ccccc12)c1ccc([N+](=O)[O-])cc1[N+](=O)[O-]`: the GI50 was > 100 µM (inactive) with HOP-18; 42.6 µM (inactive) in the assay on LXFL 529; > 100 µM (inactive) with DMS-273; > 100 µM (inactive) in the assay on XF498; > 100 µM (inactive) in the assay with M19-MEL; > 100 µM (inactive) in the assay on DMS-114. Also, the GI50 with KM-20L2 and with DLD-1 was > 100 µM (inactive) in each case.

The term GI50 denotes the concentration at which growth is held to half of that of the control.
